Data from patent US20110319379A1, “Substituted Indazole Amides And Their Use As Glucokinase Activators” (priority 2009, published 2011).

Target: T1, recombinant human glucokinase (beta cell isoform) (Homo sapiens, UniProt P35557)
T1 construct: Full-length glucokinase (beta cell isoform) was His-tagged at the N-terminus; His tag (N); made in house; host or cells: E. coli BL21(DE3), vector pBCGK
T1 sequence (P35557 1-465): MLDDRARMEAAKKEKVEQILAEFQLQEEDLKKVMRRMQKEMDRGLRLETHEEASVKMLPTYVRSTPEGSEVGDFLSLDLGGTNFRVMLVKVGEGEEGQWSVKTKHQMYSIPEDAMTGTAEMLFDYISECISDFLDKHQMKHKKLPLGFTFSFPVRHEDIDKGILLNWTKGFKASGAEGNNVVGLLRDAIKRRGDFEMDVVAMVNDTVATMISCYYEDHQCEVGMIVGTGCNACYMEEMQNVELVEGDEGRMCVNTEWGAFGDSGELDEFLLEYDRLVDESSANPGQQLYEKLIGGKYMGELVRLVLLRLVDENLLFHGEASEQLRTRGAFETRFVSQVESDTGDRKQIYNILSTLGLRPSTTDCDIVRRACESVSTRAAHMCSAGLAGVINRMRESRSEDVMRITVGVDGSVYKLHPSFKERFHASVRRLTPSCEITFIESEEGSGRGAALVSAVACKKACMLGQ
Assay: Assay 1: Evaluating Activator Potency and Maximum Activation at 5 mM Glucose
Format: biochemical
Conditions: not given
Protocol: Representative compounds of this invention were evaluated in biochemical assays (Assay 1 or Assay 2) to characterize their glucokinase activation properties.
The recombinant human glucokinase protein utilized in both assays was prepared and purified as described below.
BL21(DE3) cells (Invitrogen Corporation, Carlsbad, Calif.) containing pBCGK (C or N H is) vector were grown at 37° C. (in 2XYT) until the OD600 was between 0.6-1.0. Expression was induced by addition of isopropylthiogalactoside to a final concentration of 0.1-0.2 mM to the cells which were then incubated overnight at 23° C. The next day, cells were harvested via centrifugation at 5000 rpm for 15 minutes at 4° C. The cell pellet was stored at −80° C. for future purification.
Beta Cell Glucokinase His-Taq Purification Conditions: A Ni-NTA (Quigan, Germantown, Md.) column (15-50 mL) was used for separation. Two buffers were prepared, 1) a lysis/nickel equilibration and wash buffer and 2) a nickel elution buffer. The lysis/equilibration/wash buffer was prepared as such: 25 mM HEPES buffer at pH 7.5, 250 mM NaCl, 20 mM imidazole, and 14 mM β-mercaptoethanol as final concentrations. The elution buffer was prepared as such: 25 mM HEPES at pH 7.5, 250 mM NaCl, 400 mM imidazole, and 14 mM β-mercaptoethanol as final concentrations. The buffers were each filtered with a 0.22 μm filter prior to use. The cell pellet (1 L culture) was resuspended in 300 mL of the lysis/equilibration buffer. The cells were then lysed (3 times) with a Microfluidics Model 110Y microfluidizer (Microfluidics Corporation, Newton, Mass.). The slurry was centrifuged with a Beckman Coulter Model LE-80K ultracentrifuge (Beckman Coulter, Fullerton, Calif.) at 40,000 rpm for 45 minutes at 4° C. The supernatant was transferred to a chilled flask. A volume of 20 μl was saved for gel analysis. A Pharmacia AKTA (GMI, Inc., Ramsey, Minn.) purification system was used for separation. The prime lines were purged with lysis/equilibration buffer. The Ni-NTA column was equilibrated with 200 mL of the lysis/equilibration buffer at a flow rate of 5 mL/minute. The supernantant was loaded over the column at 4 mL/minute and the flow-through was collected in a flask. The unbound proteins were washed with lysis/equilibration buffer at a flow rate of 5 mL/minute until the ultraviolet reaches baseline. The protein was then eluted from the column with the imidazole elution buffer via imidazole gradient 20 mM to 400 mM over 320 mL. The column was then stripped of any additional protein with 80 mL of the elution buffer. The elution fractions were each 8 mL, for a total yield of 50 samples. Fractions were analyzed by sodium dodecyl sulfate polyacrylamide (SDS-PAGE) and the fractions containing protein of interest were pooled and concentrated to 10 mL using ultrafiltration cell with a 10,000 molecular weight cut-off (MWCO) Millipore membrane (Sigma-Aldrich, St. Louis, Mo.) under nitrogen gas (60 psi). Protein was further purified by size exclusion chromatography (SEC) using a […] (320 mL) (Amersham Pharmacia, Uppsala, Sweden). SEC was equilibrated with 450 mL sizing buffer containing 25 mM HEPES pH 7.0, 50 mM NaCl, and 5 mM dithiothreitol. Concentrated protein was then loaded over SEC and elution with 400 mL sizing buffer was performed overnight at 0.5 mL/minute. The elution fractions were 5 mL each. The fractions were analyzed by SDS-PAGE and protein containing fractions were pooled. Concentration was measured using Bradford Assay/BSA Standard. Purified protein was stored in small aliquots at −80° C.
Assay 1: Evaluating Activator Potency and Maximum Activation at 5 mM Glucose
Full-length glucokinase (beta cell isoform) was His-tagged at the N-terminus and purified by a Ni column followed by size exclusion chromatography as described above. Glucose was obtained from Calbiochem (San Diego, Calif.) and other reagents were purchased from Sigma-Aldrich (St. Louis, Mo.).

EC50 | SMILES
1630 nM | Cc1cnc(NC(=O)c2cc(Oc3cnc(C(=O)N(C)C)c(F)c3)c3cn(C)nc3c2)cn1 [Example 1AC, 4-{[6-(dimethylcarbamoyl)-5-fluoropyridin-3-yl]oxy}-2-methyl-N-(5-methylpyrazin-2-yl)-2H-indazole-6-carboxamide]

Same assay, conditions: Assay 1; 5 mM glucose; NADH depletion at 340 nm, PK/LDH coupled; read-out: Glucokinase EC50

EC50 | SMILES
293 nM | Cc1ccc(NC(=O)c2cc(Oc3cnc(C(=O)N4CCCC4)cn3)c3cn(C)nc3c2)nc1 [Example 1A, 2-methyl-N-(5-methylpyridin-2-yl)-4-(5-(pyrrolidine-1-carbonyl)pyrazin-2-yloxy)-2H-indazole-6-carboxamide]
863 nM | CN(C)C(=O)c1ncc(Oc2cc(C(=O)Nc3ccc(Cl)cn3)cc3nn(C)cc23)cn1 [Example 1AA, N-(5-chloropyridin-2-yl)-4-(2-(dimethylcarbamoyl)pyrimidin-5-yloxy)-2-methyl-2H-indazole-6-carboxamide]
1040 nM | CN(C)C(=O)c1ncc(Oc2cc(C(=O)Nc3ccc(C(F)(F)F)cn3)cc3nn(C)cc23)cn1 [Example 1AB, 4-(2-(dimethylcarbamoyl)pyrimidin-5-yloxy)-2-methyl-N-(5-(trifluoromethyl)-pyridin-2-yl)-2H-indazole-6-carboxamide]
463 nM | CCn1cc2c(Oc3ccc(S(=O)(=O)CC)cc3)cc(C(=O)Nc3ccc(C)cn3)cc2n1 [Example 1AD, 2-ethyl-4-[4-(ethylsulfonyl)phenoxy]-N-(5-methylpyridin-2-yl)-2H-indazole-6-carboxamide]
569 nM | CCn1cc2c(Oc3cnc(C(=O)N(C)C)c(F)c3)cc(C(=O)Nc3cnc(C)cn3)cc2n1 [Example 1AE, 4-(6-(dimethylcarbamoyl)-5-fluoropyridin-3-yloxy)-2-ethyl-N-(5-methylpyrazin-2-yl)-2H-indazole-6-carboxamide]
960 nM | Cn1cc2c(Oc3cnc(C(=O)N4CCCC4)cn3)cc(C(=O)Nc3cnccn3)cc2n1 [Example 1B, 2-methyl-N-pyrazin-2-yl-4-{[5-(pyrrolidin-1-ylcarbonyl)pyrazin-2-yl]oxy}-2H-indazole-6-carboxamide]
1490 nM | Cc1ccc(NC(=O)c2cc(Oc3ccc(C(=O)N4CCCC4)c(F)c3)c3cn(C)nc3c2)nc1 [Example 1C, 4-[3-fluoro-4-(pyrrolidin-1-ylcarbonyl)-phenoxy]-2-methyl-N-(5-methylpyridin-2-yl)-2H-indazole-6-carboxamide]
735 nM | Cn1cc2c(Oc3ccc(C(=O)N4CCCC4)c(F)c3)cc(C(=O)Nc3cnccn3)cc2n1 [Example 1D, 4-[3-fluoro-4-(pyrrolidin-1-ylcarbonyl)-phenoxy]-2-methyl-N-pyrazin-2-yl-2H-indazole-6-carboxamide]
4310 nM | CN(C)C(=O)c1cnc(Oc2cc(C(=O)Nc3cnccn3)cc3nn(C)cc23)cn1 [Example 1E, 4-{[5-(dimethylcarbamoyl)pyrazin-2-yl]oxy}-2-methyl-N-pyrazin-2-yl-2H-indazole-6-carboxamide]
2490 nM | Cc1cnc(NC(=O)c2cc(Oc3cnc(C(=O)N(C)C)cn3)c3cn(C)nc3c2)cn1 [Example 1F, 4-{[5-(dimethylcarbamoyl)pyrazin-2-yl]oxy}-2-methyl-N-(5-methylpyrazin-2-yl)-2H-indazole-6-carboxamide]
1550 nM | Cc1ccc(NC(=O)c2cc(Oc3cnc(C(=O)N(C)C)cn3)c3cn(C)nc3c2)nc1 [Example 1G, 4-{[5-(dimethylcarbamoyl)pyrazin-2-yl]oxy}-2-methyl-N-(5-methylpyridin-2-yl)-2H-indazole-6-carboxamide]
2770 nM | COc1cnc(NC(=O)c2cc(Oc3cnc(C(=O)N(C)C)cn3)c3cn(C)nc3c2)cn1 [Example 1H, 4-{[5-(dimethylcarbamoyl)pyrazin-2-yl]oxy}-N-(5-methoxypyrazin-2-yl)-2-methyl-2H-indazole-6-carboxamide]
19400 nM | Cc1cnc(NC(=O)c2cc(Oc3cnc(C(F)(F)F)cn3)c3cn(C)nc3c2)cn1 [Example 1I, 2-methyl-N-(5-methylpyrazin-2-yl)-4-{[5-(trifluoromethyl)pyrazin-2-yl]oxy}-2H-indazole-6-carboxamide]
22400 nM | Cn1ccc(NC(=O)c2cc(Oc3cnc(C(F)(F)F)cn3)c3cn(C)nc3c2)n1 [Example 1J, 2-methyl-N-(1-methyl-1H-pyrazol-3-yl)-4-{[5-(trifluoromethyl)pyrazin-2-yl]oxy}-2H-indazole-6-carboxamide]
16100 nM | Cn1cc2c(Oc3cnc(C(F)(F)F)cn3)cc(C(=O)Nc3cnn(C)n3)cc2n1 [Example 1K, 2-methyl-N-(2-methyl-2H-1,2,3-triazol-4-yl)-4-{[5-(trifluoromethyl)pyrazin-2-yl]oxy}-2H-indazole-6-carboxamide]
7810 nM | Cc1cnc(NC(=O)c2cc(Oc3ccc(S(C)(=O)=O)cc3)c3cn(C)nc3c2)cn1 [Example 1L, 2-methyl-N-(5-methylpyrazin-2-yl)-4-[4-(methylsulfonyl)phenoxy]-2H-indazole-6-carboxamide]
2660 nM | Cc1ccc(NC(=O)c2cc(Oc3ccc(S(C)(=O)=O)cc3)c3cn(C)nc3c2)nc1 [Example 1M, 2-methyl-N-(5-methylpyridin-2-yl)-4-[4-(methylsulfonyl)phenoxy]-2H-indazole-6-carboxamide]
8540 nM | Cn1ccc(NC(=O)c2cc(Oc3ccc(S(C)(=O)=O)cc3)c3cn(C)nc3c2)n1 [Example 1N, 2-methyl-N-(1-methyl-1H-pyrazol-3-yl)-4-[4-(methylsulfonyl)phenoxy]-2H-indazole-6-carboxamide]
776 nM | CCn1cc2c(Oc3cnc(C(=O)N(C)C)cn3)cc(C(=O)Nc3ccc(C)cn3)cc2n1 [Example 1O, 4-{[5-(dimethylcarbamoyl)pyrazin-2-yl]oxy}-2-ethyl-N-(5-methylpyridin-2-yl)-2H-indazole-6-carboxamide]
2730 nM | CCn1cc2c(Oc3cnc(C(=O)N(C)C)cn3)cc(C(=O)Nc3cnc(C)cn3)cc2n1 [Example 1P, 4-{[5-(dimethylcarbamoyl)pyrazin-2-yl]oxy}-2-ethyl-N-(5-methylpyrazin-2-yl)-2H-indazole-6-carboxamide]
2420 nM | CCn1cc2c(Oc3ccc(S(C)(=O)=O)cc3)cc(C(=O)Nc3ccccn3)cc2n1 [Example 1Q, 2-ethyl-4-[4-(methylsulfonyl)phenoxy]-N-pyridin-2-yl-2H-indazole-6-carboxamide]
1410 nM | CCn1cc2c(Oc3ccc(S(C)(=O)=O)cc3)cc(C(=O)Nc3ccc(C)cn3)cc2n1 [Example 1R, 2-ethyl-N-(5-methylpyridin-2-yl)-4-[4-(methylsulfonyl)phenoxy]-2H-indazole-6-carboxamide]
1340 nM | CCS(=O)(=O)c1ccc(Oc2cc(C(=O)Nc3ccccn3)cc3nn(C)cc23)cc1 [Example 1S, 4-[4-(ethylsulfonyl)phenoxy]-2-methyl-N-pyridin-2-yl-2H-indazole-6-carboxamide]
